Experimental data as given in ChEMBL document CHEMBL6078671, “Synthesis of aromatic glycoconjugates as anti-fungal agents against Candida spp. and assessment of their covalent crosslinking capabilities” (2025).
≈ marks a conversion by molar mass, not a printed value.

Legend:
Format in all cases: functional
Nakaseomyces glabratus = experiment: Fungicidal activity against Candida glabrata ATCC 90030 incubated for 24 hrs followed by replacement of medium without compound measured after 48 hrs
Clavispora lusitaniae = experiment: Fungicidal activity against Candida lusitaniae C18 incubated for 24 hrs followed by replacement of medium without compound measured after 48 hrs
Candida albicans = experiment: Fungicidal activity against Candida albicans ATCC 10231 incubated for 24 hrs followed by replacement of medium without compound measured after 48 hrs
Candida parapsilosis = experiment: Fungicidal activity against Candida parapsilosis ATCC 22019 incubated for 24 hrs followed by replacement of medium without compound measured after 48 hrs; details: Lodderomyces parapsilosis
[1] = tested on: Meyerozyma guilliermondii; experiment: Fungicidal activity against Candida guilliermondii C94 incubated for 24 hrs followed by replacement of medium without compound measured after 48 hrs
[Candida] auris = Fungicidal activity against Candida auris ATCC CMYA-5001 incubated for 24 hrs followed by replacement of medium without compound measured after 48 hrs; details: Candidozyma auris

SMILES	MFC (Nakaseomyces glabratus)	MFC (Clavispora lusitaniae)	MFC (Candida albicans)	MFC (Candida parapsilosis)	MFC [1]	MFC ([Candida] auris)
C=CC(=O)Nc1cc(C(=O)NCc2cn([C@H]3O[C@H](CO)[C@@H](O)[C@H](O)[C@@H]3O)nn2)cc(C(=O)NCc2cn([C@H]3O[C@H](CO)[C@@H](O)[C@H](O)[C@@H]3O)nn2)c1	> 10000 µg/mL	> 10000 µg/mL	> 10000 µg/mL	> 10000 µg/mL	> 10000 µg/mL	–
C=CC(=O)Nc1cc(C(=O)NCc2cn([C@H]3O[C@@H](C)[C@@H](O)[C@@H](O)[C@@H]3O)nn2)cc(C(=O)NCc2cn([C@H]3O[C@@H](C)[C@@H](O)[C@H](O)[C@@H]3O)nn2)c1	> 10000 µg/mL	> 10000 µg/mL	> 10000 µg/mL	> 10000 µg/mL	> 10000 µg/mL	> 10000 µg/mL
CCC(=O)Nc1cc(C(=O)NCc2cn([C@@H]3O[C@H](CO)[C@H](O)[C@H](O)[C@H]3O)nn2)cc(C(=O)NCc2cn([C@@H]3O[C@H](CO)[C@H](O)[C@@H](O)[C@@H]3O)nn2)c1	10000 µg/mL (≈ 13.9 mM)	–	–	–	10000 µg/mL (≈ 13.9 mM)	–
C=CS(=O)(=O)Nc1cc(C(=O)NCc2cn([C@H]3O[C@@H](C)[C@@H](O)[C@@H](O)[C@@H]3O)nn2)cc(C(=O)NCc2cn([C@H]3O[C@@H](C)[C@@H](O)[C@H](O)[C@@H]3O)nn2)c1	> 10000 µg/mL	> 10000 µg/mL	> 10000 µg/mL	> 10000 µg/mL	> 10000 µg/mL	> 10000 µg/mL
C=CS(=O)(=O)Nc1cc(C(=O)NCc2cn([C@@H]3O[C@H](CO)[C@H](O)[C@H](O)[C@H]3O)nn2)cc(C(=O)NCc2cn([C@@H]3O[C@H](CO)[C@H](O)[C@@H](O)[C@@H]3O)nn2)c1	10000 µg/mL (≈ 13.2 mM)	> 10000 µg/mL	> 10000 µg/mL	> 10000 µg/mL	10000 µg/mL (≈ 13.2 mM)	10000 µg/mL (≈ 13.2 mM)
